Laboratory results reported in patent US12234232B2, “Aromatic heterocyclic compound with kinase inhibitory activity” (SHANGHAI ENNOVABIO PHARMACEUTICALS CO., LTD., priority 2018, dated 2025).

How the values were obtained:
JAK1 [1] = target: T1, JAK1 (Homo sapiens, UniProt P23458); test: In vitro JAK1 kinase activity assay (HTRF kinEASE TK); type: biochemical; design: purchased Thermo Fisher; conditions: 1.1 μM ATP, 60 minutes, room temperature; read-out: IC50 JAK1 (enzyme activity assay)
In short: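 HTRF TK assay: 0.5 ng/μl JAK1, 1 μM biotinylated TK peptide, 1.1 μM ATP with MgCl2, MnCl2, DTT, 60 min at room temperature; compounds 10 μM to 0.04 nM, 1% DMSO. Overnight detection with SA-XL665 and TK-antibody; 665/620 ratio to % inhibition, IC50 by 4-parameter fit.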

JAK3 protein = target: T2, JAK3 protein (Homo sapiens, UniProt P52333); test: In vitro JAK3 kinase activity assay (HTRF kinEASE TK); type: biochemical; conditions: 0.75 μM ATP, 25 minutes, room temperature; read-out: IC50 JAK3 (enzyme activity assay)
T2 construct: purchased Carna Biosciences
T2 sequence (P52333 1-1124): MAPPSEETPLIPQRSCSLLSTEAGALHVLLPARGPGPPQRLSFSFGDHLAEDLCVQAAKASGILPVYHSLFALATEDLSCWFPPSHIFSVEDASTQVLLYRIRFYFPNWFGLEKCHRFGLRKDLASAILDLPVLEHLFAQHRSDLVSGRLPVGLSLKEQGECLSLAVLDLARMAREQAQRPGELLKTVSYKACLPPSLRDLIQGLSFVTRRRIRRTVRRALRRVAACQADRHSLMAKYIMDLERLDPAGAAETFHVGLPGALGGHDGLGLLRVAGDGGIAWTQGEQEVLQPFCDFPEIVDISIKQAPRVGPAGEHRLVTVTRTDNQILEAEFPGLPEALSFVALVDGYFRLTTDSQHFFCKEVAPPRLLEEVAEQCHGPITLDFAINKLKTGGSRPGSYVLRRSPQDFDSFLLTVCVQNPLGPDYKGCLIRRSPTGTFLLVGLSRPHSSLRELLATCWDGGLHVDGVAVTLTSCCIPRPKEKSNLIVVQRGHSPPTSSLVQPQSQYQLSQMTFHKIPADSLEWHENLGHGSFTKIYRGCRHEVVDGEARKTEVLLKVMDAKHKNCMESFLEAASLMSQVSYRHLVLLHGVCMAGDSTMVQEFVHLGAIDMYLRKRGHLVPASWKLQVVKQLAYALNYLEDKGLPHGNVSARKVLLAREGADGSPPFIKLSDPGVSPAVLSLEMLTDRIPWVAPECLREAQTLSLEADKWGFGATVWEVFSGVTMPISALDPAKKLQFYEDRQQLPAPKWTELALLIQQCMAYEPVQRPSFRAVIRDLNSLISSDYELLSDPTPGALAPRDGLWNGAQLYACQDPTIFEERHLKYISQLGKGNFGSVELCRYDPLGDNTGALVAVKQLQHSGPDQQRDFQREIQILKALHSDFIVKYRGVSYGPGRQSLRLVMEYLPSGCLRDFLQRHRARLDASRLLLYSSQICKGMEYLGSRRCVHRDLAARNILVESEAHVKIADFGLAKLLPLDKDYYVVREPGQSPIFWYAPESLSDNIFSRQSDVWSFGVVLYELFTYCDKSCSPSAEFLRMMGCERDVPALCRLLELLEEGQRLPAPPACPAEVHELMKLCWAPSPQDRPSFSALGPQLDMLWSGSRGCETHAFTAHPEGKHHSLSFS
In short: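 Recombinant JAK3 ([…]) with 1 μM biotinylated TK substrate peptide and 0.75 μM ATP, 5 mM MgCl2, 1 mM DTT, 1% DMSO; 25 min at room temperature. HTRF read-out (SA-XL665, TK-antibody, overnight) as 665/620 ratio; compounds 10 μM–0.04 nM, 4-fold, duplicates; IC50 from 4-parameter fit.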

JAK1 [2] = target: T1, JAK1; test: Human whole blood JAK1 activity assay: IL-6-induced STAT1 phosphorylation (CD4+ T cells); type: cell-based; design: endogenous in cells; conditions: IL-6 (100 ng/mL), read-out: IC50_JAK1 (IL6/pSTAT1)
Description: Compound inhibition of JAK1 and JAK2 activities was measured in human whole blood: inhibition of IL-6-induced STAT1 phosphorylation (CD4+ T cells) and GM-CSF-induced STAT5 phosphorylation (CD33+ cells) in human whole blood were respectively analysized. The experimental procedures are shown as follows:
1) Human whole blood was collected into heparinized tubes, and seeded in a 96-well plate at 100 µL/well, and incubated in a cell incubator for 15 minutes.
2) Different concentrations of compounds (25 μL/well) were added into desired wells and incubated at 37° C. under 5% CO2 for 30 minutes. The final concentration of DMSO was 0.2%.
3) Blood cells were stimulated with recombinant human IL-6 (100 ng/mL) or recombinant human GM-CSF (20 ng/mL) or PBS at 37° C. and 5% CO2 for 20 minutes.
4) The blood was treated with pre-warmed 1× Lysis/Fixing Buffer (BD Phosflow) at 37° C. for 10 minutes to lyse erythrocytes and fix leukocytes.
5) After the cells were permeabilized with pre-cooled buffer (Perm buffer III) on ice for 60 minutes, anti-pSTAT1 and anti-CD4 antibodies (IL-6 stimulated samples) or anti-pSTAT5 and anti-CD33 antibodies (GM-CSF stimulated samples) were used to stain the samples at 4° C. for 60 minutes.
7) The cells were washed twice and resuspended in buffer for FACS analysis (Thermo Attune NxT).

T1 sequence (P23458 whole entry): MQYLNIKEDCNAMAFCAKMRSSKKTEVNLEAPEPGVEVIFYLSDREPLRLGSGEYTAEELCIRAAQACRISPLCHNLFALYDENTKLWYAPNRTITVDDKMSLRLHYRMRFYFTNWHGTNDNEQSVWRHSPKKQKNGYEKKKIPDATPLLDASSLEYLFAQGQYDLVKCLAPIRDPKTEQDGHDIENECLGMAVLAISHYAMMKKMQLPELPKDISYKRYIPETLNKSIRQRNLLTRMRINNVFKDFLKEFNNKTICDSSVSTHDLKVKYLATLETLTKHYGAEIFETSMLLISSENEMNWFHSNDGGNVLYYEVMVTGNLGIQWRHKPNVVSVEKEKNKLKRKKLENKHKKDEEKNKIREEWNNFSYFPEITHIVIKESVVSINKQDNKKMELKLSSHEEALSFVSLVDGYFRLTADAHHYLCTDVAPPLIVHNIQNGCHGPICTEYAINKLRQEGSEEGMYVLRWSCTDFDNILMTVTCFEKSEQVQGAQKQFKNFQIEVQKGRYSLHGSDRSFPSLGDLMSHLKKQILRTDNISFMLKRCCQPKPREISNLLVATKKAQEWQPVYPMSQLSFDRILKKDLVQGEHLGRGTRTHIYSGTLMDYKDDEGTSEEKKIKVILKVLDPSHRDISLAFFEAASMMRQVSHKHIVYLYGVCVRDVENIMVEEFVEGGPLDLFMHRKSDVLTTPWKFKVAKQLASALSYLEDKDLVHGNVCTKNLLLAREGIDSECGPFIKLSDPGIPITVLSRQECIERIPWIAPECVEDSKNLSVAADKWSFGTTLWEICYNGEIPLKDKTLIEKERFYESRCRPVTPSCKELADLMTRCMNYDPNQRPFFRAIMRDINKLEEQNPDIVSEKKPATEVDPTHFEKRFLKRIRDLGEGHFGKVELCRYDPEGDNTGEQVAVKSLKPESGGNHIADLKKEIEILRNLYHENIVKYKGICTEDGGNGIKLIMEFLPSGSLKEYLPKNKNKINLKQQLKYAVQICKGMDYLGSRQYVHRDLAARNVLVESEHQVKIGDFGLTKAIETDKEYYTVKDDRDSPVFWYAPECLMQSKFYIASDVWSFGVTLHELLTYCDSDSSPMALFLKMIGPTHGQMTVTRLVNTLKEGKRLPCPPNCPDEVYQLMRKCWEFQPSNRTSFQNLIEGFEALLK

- IC50 (JAK1 [1]): < 5 nM
- IC50 (JAK3 protein): < 500 nM
- IC50 (JAK1 [2]): < 500 nM
SMILES: CC[C@H](C(=O)Nc1nccc2c(-c3nc(Nc4cn(C)nc4OC)ncc3C)c[nH]c12)N1CCN(C)CC1 [Example 4, (R)—N-(3-(2-((3-Methoxy-1-methyl-1H-pyrazol-4-yl)amino)-5-methylpyrimidin-4-yl)-1H-pyrrolo[2,3-c]pyridin-7-yl)-2-(4-methylpiperazin-1-yl)butanamide]
